PMC6368365, “Didehydro-Cortistatin A Inhibits HIV-1 by Specifically Binding to the Unstructured Basic Region of Tat” (mBio, 2019)

Columns and labels:
[1] = parameters: method as in PMID 22817991, PMID 29045830, PMID 25613133; settings: mice; cited from earlier work
[2] = target: T1, Hexim-1 (Homo sapiens, UniProt O94992); test: Confocal immunofluorescence of Hexim-1 subcellular localization; assay type: cell-based; settings: HeLa-CD4-LTR-Luc cells
T1 construct: endogenous in cells; host or cells: HeLa-CD4-LTR-LacZ (RNA immunoprecipitation); HeLa-CD4-LTR-Luc (immunofluorescence)
Excerpt: (A) Sequence of the basic domains of HIV Tat HXB3, HIV Rev Bru and intracellular Hexim-1. […] Shown is confocal microscopy analysis of the subcellular localization of transfected FLAG-Tat or FLAG-Rev in the presence of DMSO or dCA in HeLa-CD4-LTR-Luc cells. Proteins were recognized with anti-FLAG and Alexa Fluor 568-tagged anti-IgG. Magnification 60×. Data are representative of n = 2 independent experiments. (C) Quantification of the nucleolar fluorescence of panel B using ImageJ. Data are the mean ± SEM from 3 to 4 different cells. […] HeLa-CD4-LTR-LacZ cells were infected with strain NL4-3 for 24 hours. The next day, compounds (dCA, 10 nM; KPT, 400 nM; and SCM, 10 nM) were added for 24 hours. Total, nuclear, and cytoplasmic mRNAs were extracted, and viral messages were determined by qRT-PCR. GAPDH was used for normalization. Data are the mean ± SD from n = 5 independent experiments. […] (G) Quantification of nuclear fluorescence of panel F using ImageJ. […] Statistical significance was determined using one-way ANOVA with post hoc Tukey’s test. ns, not significant; ***, P < 0.0001; **, P < 0.001.
Hexim-1 directly binds to cyclin T1 and is responsible for the inactivation of the kinase activity of P-TEFb ([35], [36]). […] Intracellular Hexim-1 was immunoprecipitated, and 7SK snRNP bound to Hexim-1 was extracted, reverse transcribed, and quantified by qRT-PCR as previously described ([42]) (Fig. 3E). […]

[3] = parameters: method as in PMID 22817991, PMID 29045830, PMID 25613133; settings: cited from earlier work
[4] = MTT viability assay, 72 h; assay type: cell-based; settings: human, HeLa-CD4-LTR-LacZ cells, mean ± SD, n = 2 to 3
Method: The assay was performed with MTT [3-(4,5-dimethyl-2-thiazolyl)-2,5-diphenyl-2H-tetrazolium bromide] as described in reference.

T1 sequence (O94992 whole entry): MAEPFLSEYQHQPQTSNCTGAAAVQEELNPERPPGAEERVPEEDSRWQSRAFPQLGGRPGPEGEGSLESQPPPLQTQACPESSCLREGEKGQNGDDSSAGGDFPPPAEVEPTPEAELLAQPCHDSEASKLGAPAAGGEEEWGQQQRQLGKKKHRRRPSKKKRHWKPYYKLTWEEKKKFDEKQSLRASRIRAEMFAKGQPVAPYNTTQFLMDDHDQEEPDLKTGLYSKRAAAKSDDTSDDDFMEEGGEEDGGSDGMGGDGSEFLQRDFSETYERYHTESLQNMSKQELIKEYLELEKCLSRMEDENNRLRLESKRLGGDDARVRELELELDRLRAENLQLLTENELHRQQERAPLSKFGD

CN(C)C1CC23CCC4(O2)C(=CCC2(C)C(c5ccc6ccncc6c5)=CCC24)C=C3C(O)C1O (stereo not shown) [dCA, didehydro-cortistatin A]
bioavailability [1]: good bioavailability in mice | Hexim-1 nuclear localization [2]: did not have any effect | solubility in water [3]: very soluble in water | CC50 at 72 h [4]: 20 µM
